PMC9697031, “Identification of Novel Diarylpyrimidines as Potent HIV-1 Non-Nucleoside Reverse Transcriptase Inhibitors by Exploring the Primer Grip Region” (Pharmaceuticals, 2022)
Where two headings read alike, the source gives them in different places.

Experiments:
WT HIV-1 strain (IIIB) = test: Anti-HIV-1 (IIIB, wild-type) activity in MT-4 cells, MTT method; type: cell-based; conditions: for SI (IIIB): selectivity index, CC50/EC50 (IIIB)
Description: (§1) Stock solutions (10 × final concentration) of test compounds were added in 25 μL volumes to two series of triplicate wells to allow simultaneous evaluation of their effects on mock- and HIV-infected cells at the beginning of each experiment.

HIV-2 strain (ROD) = test: Anti-HIV-2 (ROD) activity in MT-4 cells, MTT method; type: cell-based
Description: as §1

in vitro = conditions: human
Description: as §1

[1] = tested on: HIV-1 L100I mutant strain; test: Anti-HIV-1 mutant strain L100I in MT-4 cells, MTT method; type: cell-based; conditions: Human immunodeficiency virus 1, MT4, read-out: EC50 L100I
Description: (§2) Evaluation of the anti-HIV activity and cytotoxicity of the target compounds was performed by utilizing the MTT method in MT-4 cells described previously [37]. Stock solutions (10 × final concentration) of test compounds were added in 25 μL volumes to two series of triplicate wells to allow simultaneous evaluation of their effects on mock- and HIV-infected cells at the beginning of each experiment. Serial five-fold dilutions of test compounds were prepared directly in flat-bottomed 96-well microtiter trays by adding 100 μL medium to the 25 μL stock solution and transferring 25 μL of this solution to another well that contained 100 μL medium using a Biomek 3000 robot (Beckman Instruments, Fullerton, CA). Each sample includes untreated control HIV- and mock-infected cell samples. WT HIV-1 strain (IIIB), HIV-1 drug-resistant strains including L100I, K103N, Y181C, Y188L, E138K, K103N/Y181C, F227L/V106A or HIV-2 strain (ROD) stock (50 μL) at 100–300 CCID50 (50% cell culture infectious dose) or culture medium was added to either the infected or mock-infected wells of the microtiter tray. Mock-infected cells were used to evaluate the effect of test compounds on uninfected cells to evaluate their cytotoxicity. Exponentially growing MT-4 cells were centrifuged for 5 min at 1000 rpm, and the supernatant was discarded. […] After infection five days, the viability of mock- and HIV-infected cells was examined spectrophotometrically by the MTT assay.

[2] = tested on: HIV-1 K103N mutant strain; test: microbe, parasite or virus in culture; type: cell-based; conditions: for EC50: Human immunodeficiency virus 1, MT4, read-out: EC50 K103N; for Resistance Folds K103N: RF, EC50 (K103N)/EC50 (WT)
Description: as §1

[3] = tested on: HIV-1 Y181C mutant strain; test: Anti-HIV-1 mutant strain Y181C in MT-4 cells, MTT method; type: cell-based; conditions: Human immunodeficiency virus 1, MT4, read-out: EC50 Y181C
Description: as §2

[4] = tested on: HIV-1 E138K mutant strain; test: Anti-HIV-1 mutant strain E138K in MT-4 cells, MTT method; type: cell-based; conditions: Human immunodeficiency virus 1, MT4, read-out: EC50 E138K
Description: as §2

[5] = tested on: HIV-1 F227L + V106A mutant strain; test: Anti-HIV-1 double mutant F227L + V106A in MT-4 cells, MTT method; type: cell-based; conditions: Human immunodeficiency virus 1, MT4, read-out: EC50 F227L + V106A
Description: as §2

[6] = tested on: HIV-1 Y188L mutant strain; test: Anti-HIV-1 mutant strain Y188L in MT-4 cells, MTT method; type: cell-based; conditions: Human immunodeficiency virus 1, MT4, read-out: EC50 Y188L
Description: as §2

[7] = tested on: HIV-1 RES056 (K103N/Y181C) mutant strain; test: Anti-HIV-1 double mutant RES056 in MT-4 cells, MTT method; type: cell-based; conditions: Human immunodeficiency virus 1, MT4, read-out: EC50 RES056
Description: as §2

HIV-1 WT RT = molecular target: T1, HIV-1 WT RT (Human immunodeficiency virus type 1 group M subtype B, UniProt P04585); test: HIV-1 RT inhibition assay (Roche kit, ELISA); type: biochemical
T1 construct: The RT is a heterodimer consisting of two subunits, p66 (560 residues) and p51 (440 residues); purchased Roche
Description: An HIV-1 reverse transcriptase (RT) assay kit produced by Roche was used for the RT inhibition assay. All the reagents for performing the RT reaction came from the kit, and the ELSIA procedures for RT inhibition assay were conducted following the description in the kit protocol [38]. […] Then used, a washing buffer was used to remove the unbound dNTPs, and an anti-DIG-POD working solution was added. […] The unbound anti-DIG-PODs were removed, and the peroxidesubstrate (ABST) solution was added to the MTPs. A colored reaction proceeds during the cleavage of the substrate catalyzed by POD. […] The percentage inhibitory activity of RT inhibitors was calculated by the formula given below: % Inhibition = [O.D. value with RT but without inhibitors − O.D. value with RT and inhibitors]/[O.D. value with RT and inhibitors − O.D. value without RT and inhibitors].

[8] = Human immunodeficiency virus 1, MT4, MT-4 cells, WT HIV-1 IIIB, MTT, read-out: EC50 IIIB
[9] = Human immunodeficiency virus 1, IIIB, MT4, read-out: EC50 IIIB, MT-4 cells, WT HIV-1 IIIB, MTT
[10] = Human immunodeficiency virus 2, MT4, read-out: EC50 ROD

SMILES	EC50 (WT HIV-1 strain (IIIB); [8])	SI (IIIB) (WT HIV-1 strain (IIIB))	EC50 (HIV-2 strain (ROD); Human immunodeficiency virus 2, MT4, MT-4 cells, HIV-2 ROD, MTT, read-out: EC50 ROD)	CC50 at 5 days (in vitro)	EC50 [1]	EC50 [2]	EC50 [3]	EC50 [4]	EC50 [5]	EC50 [6]	EC50 [7]	EC50 (WT HIV-1 strain (IIIB); [9])	melting point	EC50 (HIV-2 strain (ROD); [10])	Resistance Folds K103N [2]	IC50 (HIV-1 WT RT)
Cc1cn([C@H]2C[C@H](N=[N+]=[N-])[C@@H](CO)O2)c(=O)[nH]c1=O [AZT, Zidovudine, reference compound]	0.0273 ± 0.0035 µM	>274.0	0.0233 ± 0.0021 µM	> 7.48 µM	0.01 ± 0.0012 µM	0.0228 ± 0.0011 µM	0.0251 ± 0.003 µM	0.0301 ± 0.003 µM	0.0148 ± 0.0011 µM	0.0194 ± 0.0029 µM	0.0251 ± 0.0018 µM	–	–	–	–	–
O=C1Nc2ccc(Cl)cc2[C@@](C#CC2CC2)(C(F)(F)F)O1 [EFV, efavirenz, reference compound]	0.0024 ± 0.0003 µM	–	–	> 6.34 µM	0.035 ± 0.0047 µM	0.0951 ± 0.0091 µM	0.0055 ± 0.0005 µM	0.0044 ± 0.0003 µM	0.201 ± 0.0173 µM	0.24 ± 0.0304 µM	0.184 ± 0.022 µM	–	–	–	–	–
Cc1ccnc2c1NC(=O)c1cccnc1N2C1CC1 [NVP, nevirapine, reference compound]	0.123 ± 0.0073 µM	–	–	> 15 µM	1.86 ± 0.365 µM	7.5 ± 0.867 µM	10.1 µM	0.149 ± 0.012 µM	> 15 µM	≥ 13.8 µM	> 15 µM	–	–	–	–	–
Cc1cc(COc2ccccc2)cc(C)c1Oc1ccnc(Nc2ccc(C#N)cc2)n1 [TF1, 4-((4-(2,6-dimethyl-4-(phenoxymethyl)phenoxy)pyrimidin-2-yl)amino) benzonitrile]	–	>17,326.7	–	> 296 µM	0.221 ± 0.0535 µM	0.0507 ± 0.0096 µM	0.515 ± 0.0604 µM	0.0765 ± 0.0094 µM	1.71 ± 0.581 µM	1.52 ± 0.0921 µM	6.85 ± 1.17 µM	0.0171 ± 0.0023 µM	179 to 182 °C	> 296 µM	3.00	0.062 µM
Cc1cc(COc2ccc(C#N)cc2)cc(C)c1Oc1ccnc(Nc2ccc(C#N)cc2)n1 [TF2, 4-((4-(4-((4-cyanophenoxy)methyl)-2,6-dimethylphenoxy)pyrimidin-2-yl)amino) benzonitrile]	–	>36,610.9	–	> 279 µM	0.117 ± 0.0495 µM	0.0281 ± 0.0071 µM	0.139 ± 0.0349 µM	0.044 ± 0.0029 µM	1.14 ± 0.347 µM	1.39 ± 0.119 µM	> 279 µM	0.0076 ± 0.0006 µM	202 to 205 °C	> 279 µM	3.68	0.055 ± 0.001 µM
Cc1cc(COc2cccc(C#N)c2)cc(C)c1Oc1ccnc(Nc2ccc(C#N)cc2)n1 [TF3, 3-((4-((2-((4-cyanophenyl)amino)pyrimidin-4-yl)oxy)-3,5-dimethylbenzyl)oxy) benzonitrile]	–	–	–	5.52 ± 0.297 µM	0.116 ± 0.0058 µM	0.0484 ± 0.0075 µM	0.245 ± 0.0396 µM	0.0877 ± 0.0085 µM	0.755 ± 0.156 µM	0.895 ± 0.0902 µM	1.54 ± 0.103 µM	0.0245 ± 0.0041 µM	–	> 5.52 µM	1.92	0.06 µM
Cc1cc(COc2ccccc2C#N)cc(C)c1Oc1ccnc(Nc2ccc(C#N)cc2)n1 [TF4, 2-((4-((2-((4-cyanophenyl)amino)pyrimidin-4-yl)oxy)-3,5-dimethylbenzyl)oxy) benzonitrile]	–	–	–	5.29 ± 0.356 µM	0.315 ± 0.0307 µM	0.0759 ± 0.0139 µM	0.482 ± 0.0426 µM	0.103 ± 0.0068 µM	1.28 ± 0.303 µM	> 5.3 µM	> 5.3 µM	0.0078 ± 0.001 µM	–	> 5.29 µM	9.74	0.05 ± 0.002 µM
COc1ccc(OCc2cc(C)c(Oc3ccnc(Nc4ccc(C#N)cc4)n3)c(C)c2)cc1 [TF5, 4-((4-(4-((4-methoxyphenoxy)methyl)-2,6-dimethylphenoxy)pyrimidin-2-yl)amino)benzonitrile]	–	–	–	254 µM	0.126 ± 0.0126 µM	0.0445 ± 0.0049 µM	0.268 ± 0.0289 µM	0.0653 ± 0.01 µM	1.41 ± 0.57 µM	0.964 ± 0.0981 µM	> 254 µM	0.0217 ± 0.0036 µM	–	> 254 µM	2.00	0.054 ± 0.004 µM
COc1cccc(OCc2cc(C)c(Oc3ccnc(Nc4ccc(C#N)cc4)n3)c(C)c2)c1 [TF6, 4-((4-(4-((3-methoxyphenoxy)methyl)-2,6-dimethylphenoxy)pyrimidin-2-yl)amino)benzonitrile]	–	195.6	–	6.9 ± 0.249 µM	0.156 ± 0.0168 µM	0.0912 ± 0.0144 µM	0.387 ± 0.0874 µM	0.1497 ± 0.0007 µM	1.1 ± 0.281 µM	1.39 ± 0.0836 µM	> 6.9 µM	0.0353 ± 0.0041 µM	149 to 152 °C	> 6.9 µM	2.60	0.052 ± 0.004 µM
COc1ccccc1OCc1cc(C)c(Oc2ccnc(Nc3ccc(C#N)cc3)n2)c(C)c1 [TF7, 4-((4-(4-((2-methoxyphenoxy)methyl)-2,6-dimethylphenoxy)pyrimidin-2-yl)amino)benzonitrile]	–	–	–	8.15 ± 0.548 µM	0.452 ± 0.0705 µM	0.164 ± 0.0055 µM	0.791 ± 0.0629 µM	0.181 ± 0.0107 µM	1.22 ± 0.179 µM	> 8.15 µM	> 8.15 µM	0.0255 ± 0.0084 µM	–	> 8.15 µM	6.31	0.073 ± 0.003 µM
Cc1cc(COc2ccc(CO)cc2)cc(C)c1Oc1ccnc(Nc2ccc(C#N)cc2)n1 [TF8, 4-((4-(4-((4-(hydroxymethyl)phenoxy)methyl)-2,6-dimethylphenoxy)pyrimidin-2-yl)amino)benzonitrile]	–	68.1	–	2.92 ± 0.272 µM	0.329 ± 0.0567 µM	0.11 ± 0.0046 µM	0.667 ± 0.078 µM	0.147 ± 0.0046 µM	0.853 ± 0.0814 µM	0.886 ± 0.0201 µM	1.419 ± 0.0097 µM	0.0428 ± 0.0056 µM	209 to 212 °C	> 2.92 µM	2.56	0.041 ± 0.001 µM
Cc1cc(COc2cccc(CO)c2)cc(C)c1Oc1ccnc(Nc2ccc(C#N)cc2)n1 [TF9, 4-((4-(4-((3-(hydroxymethyl)phenoxy)methyl)-2,6-dimethylphenoxy)pyrimidin-2-yl)amino)benzonitrile]	–	113.3	–	3.46 ± 0.375 µM	0.308 ± 0.0463 µM	0.12 ± 0.0182 µM	0.499 ± 0.0446 µM	0.147 ± 0.012 µM	1 ± 0.0296 µM	1.1 ± 0.0957 µM	1.59 ± 0.0875 µM	0.0305 ± 0.004 µM	147 to 150 °C	> 3.46 µM	3.87	0.053 µM
Cc1cc(COc2ccccc2CO)cc(C)c1Oc1ccnc(Nc2ccc(C#N)cc2)n1 [TF10, 4-((4-(4-((2-(hydroxymethyl)phenoxy)methyl)-2,6-dimethylphenoxy)pyrimidin-2-yl)amino)benzonitrile]	–	149.1	–	4.8 ± 0.342 µM	0.635 ± 0.0282 µM	0.158 ± 0.0186 µM	0.766 ± 0.0225 µM	0.179 ± 0.0269 µM	1.49 ± 0.0339 µM	> 4.8 µM	> 4.8 µM	0.0322 ± 0.0033 µM	179 to 182 °C	> 4.8 µM	4.94	0.055 µM
Cc1cc(COc2cccnc2)cc(C)c1Oc1ccnc(Nc2ccc(C#N)cc2)n1 [TF11, 4-((4-(2,6-Dimethyl-4-((pyridin-3-yloxy)methyl)phenoxy)pyrimidin-2-yl)amino) benzonitrile]	–	74.5	–	14.8 µM	9.574 ± 0.0222 µM	0.444 ± 0.0686 µM	> 14.8 µM	≥ 3.02 µM	> 14.8 µM	> 14.8 µM	> 14.8 µM	0.199 ± 0.013 µM	237 to 240 °C	> 14.8 µM	2.23	0.483 ± 0.03 µM
Cc1cc(COc2ccc([N+](=O)[O-])cc2)cc(C)c1Oc1ccnc(Nc2ccc(C#N)cc2)n1 [TF15, 4-((4-(2,6-Dimethyl-4-((4-nitrophenoxy)methyl)phenoxy)pyrimidin-2-yl)amino) benzonitrile]	–	–	–	215 µM	0.105 ± 0.0152 µM	0.0463 ± 0.0097 µM	0.196 ± 0.0254 µM	0.05 ± 0.0044 µM	1.66 ± 0.448 µM	1.08 ± 0.0994 µM	1.8 ± 0.0685 µM	0.0231 ± 0.0031 µM	–	> 215 µM	2.00	0.063 ± 0.001 µM
Cc1cc(COc2ccc(N)cc2)cc(C)c1Oc1ccnc(Nc2ccc(C#N)cc2)n1 [TF17, 4-((4-(4-((4-Aminophenoxy)methyl)-2,6-dimethylphenoxy)pyrimidin-2-yl)amino) benzonitrile]	–	–	–	5.49 ± 0.328 µM	0.227 ± 0.0289 µM	0.0653 ± 0.0076 µM	0.552 ± 0.0625 µM	0.152 ± 0.0103 µM	0.747 ± 0.0722 µM	0.905 ± 0.147 µM	–	0.0325 ± 0.0017 µM	–	> 5.49 µM	1.97	0.057 ± 0.003 µM
